Measured values from patent US6706740B2, “Fungicidal heterocyclic aromatic amides and their compositions, methods of use and preparation” (Dow AgroSciences LLC, priority 1999, dated 2004).

Legend:
[1] = tested on: Magnaporthe grisea (Pyricularia oryzae—PYRIOR); experiment: microbe, parasite or virus in culture; type: cell-based; details: Pyricularia oryzae, read-out: PYRIOR in vitro Growth Inhibition
[2] = tested on: Rhizoctonia solani (RHIZSO); experiment: microbe, parasite or virus in culture; type: cell-based; details: Rhizoctonia solani, read-out: RHIZSO in vitro Growth Inhibition
[3] = tested on: Mycosphaerella graminicola (Septoria tritici—SEPTTR); experiment: In vitro fungal growth inhibition, Mycosphaerella graminicola (SEPTTR); type: cell-based; details: Zymoseptoria tritici; 25 ppm in growth medium; read-out: SEPTTR in vitro Growth Inhibition
[4] = tested on: Stagonospora nodorum (Leptosphaeria nodorum—LEPTNO); experiment: In vitro fungal growth inhibition, Stagonospora nodorum (LEPTNO); type: cell-based; details: Leptosphaeria; 25 ppm in growth medium; read-out: LEPTNO in vitro Growth Inhibition
Ustilago maydis (USTIMA) = experiment: microbe, parasite or virus in culture; type: cell-based; details: Mycosarcoma maydis, read-out: USTIMA in vitro Growth Inhibition
[5] = tested on: Phytophthora infestans (PHYTIN); experiment: microbe, parasite or virus in culture; type: cell-based; details: Phytophthora infestans, read-out: PHYTIN in vitro Growth Inhibition
[6] = tested on: Phytophthora infestans—PHYTIN; experiment: whole plant or invertebrate; type: in vivo; details: Phytophthora, in Solanum lycopersicum, 24 h, read-out: PHYTIN in vivo 1 Day Protectant
[7] = tested on: Puccinia recondita—PUCCRT; experiment: Brown Rust of Wheat, in vivo whole plant, 24 Hour Protectant; details: 100 ppm spray, 24 hour protectant, wheat, control of fungal infection vs untreated plants; for pest or weed control at 100 ppm: Puccinia, read-out: PUCCRT in vivo 1 Day Protectant
Erysiphe graminis—ERYSGT = experiment: Powdery Mildew of Wheat, in vivo whole plant, 24 Hour Protectant; details: Erysiphe; 100 ppm spray, 24 hour protectant, wheat; control of fungal infection vs untreated plants; read-out: ERYSGT in vivo 1 Day Protectant
Septoria tritici—SEPTTR = experiment: Leaf Blotch of Wheat, in vivo whole plant, 24 Hour Protectant; details: 100 ppm spray, 24 hour protectant, wheat, control of fungal infection vs untreated plants; for pest or weed control at 100 ppm: Zymoseptoria tritici, 24 h, read-out: SEPTTR in vivo 1 Day Protectant
[8] = tested on: Leptosphaeria nodorum—LEPTNO; experiment: Glume Blotch of Wheat, in vivo whole plant, 24 Hour Protectant; details: 100 ppm spray, 24 hour protectant, wheat, control of fungal infection vs untreated plants; for pest or weed control at 100 ppm: Leptosphaeria, read-out: LEPTNO in vivo 1 Day Protectant

COc1ccnc(C(=O)NCCCc2cccnc2)c1O [Compound 243]
inhibition at 25 ppm [1]: < 80%
inhibition at 25 ppm [2]: < 80%
inhibition at 25 ppm [3]: < 80%
inhibition at 25 ppm [4]: < 80%
inhibition at 25 ppm (Ustilago maydis (USTIMA)): < 80%
inhibition at 25 ppm [5]: < 80%
pest or weed control at 100 ppm [6]: < 25%
pest or weed control at 100 ppm [7]: 25 to 74%
pest or weed control at 100 ppm (Erysiphe graminis—ERYSGT): < 25%
pest or weed control at 100 ppm (Septoria tritici—SEPTTR): 25 to 74%
pest or weed control at 100 ppm [8]: 25 to 74%

COc1ccnc(C(=O)NCC2COCCOCCOCCOCCO2)c1O (stereo not drawn) [Compound 245]
inhibition at 25 ppm [1]: < 80%
inhibition at 25 ppm [2]: < 80%
inhibition at 25 ppm [3]: < 80%
inhibition at 25 ppm [4]: < 80%
inhibition at 25 ppm (Ustilago maydis (USTIMA)): < 80%
inhibition at 25 ppm [5]: < 80%
pest or weed control at 100 ppm [6]: < 25%
pest or weed control at 100 ppm [7]: < 25%
pest or weed control at 100 ppm (Erysiphe graminis—ERYSGT): < 25%
pest or weed control at 100 ppm (Septoria tritici—SEPTTR): 25 to 74%
pest or weed control at 100 ppm [8]: 25 to 74%

COc1ccnc(C(=O)NC(C)c2ccc(C(F)(F)F)cc2)c1O (stereo not drawn) [Compound 247]
inhibition at 25 ppm [1]: < 80%
inhibition at 25 ppm [2]: < 80%
inhibition at 25 ppm [3]: > 80%
inhibition at 25 ppm [4]: > 80%
inhibition at 25 ppm (Ustilago maydis (USTIMA)): < 80%
inhibition at 25 ppm [5]: < 80%
pest or weed control at 100 ppm [6]: < 25%
pest or weed control at 100 ppm [7]: < 25%
pest or weed control at 100 ppm (Erysiphe graminis—ERYSGT): < 25%
pest or weed control at 100 ppm (Septoria tritici—SEPTTR): 25 to 74%
pest or weed control at 100 ppm [8]: 25 to 74%

COc1ccnc(C(=O)NC2CCCC2O)c1O (stereo not drawn) [Compound 248]
inhibition at 25 ppm [1]: < 80%
inhibition at 25 ppm [2]: < 80%
inhibition at 25 ppm [3]: < 80%
inhibition at 25 ppm [4]: < 80%
inhibition at 25 ppm (Ustilago maydis (USTIMA)): < 80%
inhibition at 25 ppm [5]: < 80%
pest or weed control at 100 ppm [6]: < 25%
pest or weed control at 100 ppm [7]: < 25%
pest or weed control at 100 ppm (Erysiphe graminis—ERYSGT): < 25%
pest or weed control at 100 ppm (Septoria tritici—SEPTTR): < 25%
pest or weed control at 100 ppm [8]: 25 to 74%

COc1ccnc(C(=O)NC2CCCC2=O)c1O (stereo not drawn) [Compound 249]
inhibition at 25 ppm [1]: < 80%
inhibition at 25 ppm [2]: < 80%
inhibition at 25 ppm [3]: < 80%
inhibition at 25 ppm [4]: < 80%
inhibition at 25 ppm (Ustilago maydis (USTIMA)): < 80%
inhibition at 25 ppm [5]: < 80%
pest or weed control at 100 ppm [6]: < 25%
pest or weed control at 100 ppm [7]: < 25%
pest or weed control at 100 ppm (Erysiphe graminis—ERYSGT): < 25%
pest or weed control at 100 ppm (Septoria tritici—SEPTTR): 25 to 74%
pest or weed control at 100 ppm [8]: 25 to 74%

CCC1(C)CC(NC(=O)c2nccc(OC)c2O)CC(C)(C)C1 (stereo not drawn) [Compound 251]
inhibition at 25 ppm [1]: < 80%
inhibition at 25 ppm [2]: < 80%
inhibition at 25 ppm [3]: > 80%
inhibition at 25 ppm [4]: > 80%
inhibition at 25 ppm (Ustilago maydis (USTIMA)): < 80%
inhibition at 25 ppm [5]: > 80%
pest or weed control at 100 ppm [6]: 25 to 74%
PUCCRT in vivo 1 Day Protectant [7]: + +
pest or weed control at 100 ppm (Erysiphe graminis—ERYSGT): < 25%
SEPTTR in vivo 1 Day Protectant (Septoria tritici—SEPTTR): + +
LEPTNO in vivo 1 Day Protectant [8]: + +

COc1ccnc(C(=O)NC2CC(C)(C)CC(C)(C3CC3)C2)c1O (stereo not drawn) [Compound 252]
inhibition at 25 ppm [1]: > 80%
inhibition at 25 ppm [2]: > 80%
inhibition at 25 ppm [3]: > 80%
inhibition at 25 ppm [4]: > 80%
inhibition at 25 ppm (Ustilago maydis (USTIMA)): < 80%
inhibition at 25 ppm [5]: > 80%
pest or weed control at 100 ppm [6]: 25 to 74%
pest or weed control at 100 ppm [7]: 25 to 74%
pest or weed control at 100 ppm (Erysiphe graminis—ERYSGT): < 25%
pest or weed control at 100 ppm (Septoria tritici—SEPTTR): 25 to 74%
pest or weed control at 100 ppm [8]: 25 to 74%

CCCCC1(C)CC(NC(=O)c2nccc(OC)c2O)CC(C)(C)C1 (stereo not drawn) [Compound 253]
inhibition at 25 ppm [1]: > 80%
inhibition at 25 ppm [2]: < 80%
inhibition at 25 ppm [3]: > 80%
inhibition at 25 ppm [4]: > 80%
inhibition at 25 ppm (Ustilago maydis (USTIMA)): < 80%
inhibition at 25 ppm [5]: > 80%
pest or weed control at 100 ppm [6]: < 25%
pest or weed control at 100 ppm [7]: 25 to 74%
pest or weed control at 100 ppm (Erysiphe graminis—ERYSGT): < 25%
pest or weed control at 100 ppm (Septoria tritici—SEPTTR): 25 to 74%
pest or weed control at 100 ppm [8]: 25 to 74%

CCCCC1(C)CCCC(NC(=O)c2nccc(OC)c2O)C1 (stereo not drawn) [Compound 254]
inhibition at 25 ppm [1]: > 80%
inhibition at 25 ppm [2]: < 80%
inhibition at 25 ppm [3]: > 80%
inhibition at 25 ppm [4]: > 80%
inhibition at 25 ppm (Ustilago maydis (USTIMA)): < 80%
inhibition at 25 ppm [5]: > 80%
pest or weed control at 100 ppm [6]: < 25%
pest or weed control at 100 ppm [7]: 25 to 74%
pest or weed control at 100 ppm (Erysiphe graminis—ERYSGT): < 25%
pest or weed control at 100 ppm (Septoria tritici—SEPTTR): 25 to 74%
pest or weed control at 100 ppm [8]: 25 to 74%
